Assay results: patent US7109243B2 (IRM LLC, priority 2003, dated 2006)
pKi: −log10 of the molar value.

How the values were obtained:
Cathepsin S = Cathepsin S (Homo sapiens, UniProt P25774); test: Cathepsin S inhibition assay (fluorogenic peptide substrate); type: biochemical; conditions: Table II, compounds of Formula I; read-out: Ki Cat. S
Experimental: “Inhibition constant”, Ki, is the dissociation constant of the enzyme-inhibitor complex, or the reciprocal of the binding affinity of the inhibitor to the enzyme. […] The inhibited rates are then fit by nonlinear regression to the following equation: […]
The assumption being made for the classical inhibition described above is that the free inhibitor concentration is equal to the total inhibitor concentration.
Kinetic measurements are performed in a total reaction volume of 30 μl in 384-well microtiter plates. […] The reactions are initiated by adding the substrate, acetyl-histidine-proline-valine-lysine-amino carbamoyl coumarin, to a final concentration of 50 μM. The rate of substrate hydrolysis is measured by monitoring the increase in fluorescence at an excitation wavelength of 380 nm and an emission wavelength of 450 nm that results from cleavage of the aniline bond in the substrate by the enzyme.

Cathepsin K = molecular target: T1, Cathepsin K (Homo sapiens, UniProt P43235); test: Cathepsin K inhibition assay (fluorogenic peptide substrate); selectivity ratio vs cathepsin S; type: biochemical; conditions: ratio of cathepsin K inhibition constant to cathepsin S inhibition constant; Table II
T1 sequence (P43235 115-329): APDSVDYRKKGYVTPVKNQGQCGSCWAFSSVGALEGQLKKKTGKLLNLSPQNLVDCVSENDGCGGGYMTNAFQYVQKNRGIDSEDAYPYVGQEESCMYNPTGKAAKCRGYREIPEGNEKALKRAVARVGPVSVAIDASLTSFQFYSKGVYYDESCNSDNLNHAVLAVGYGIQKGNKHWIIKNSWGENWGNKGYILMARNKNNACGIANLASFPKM
Experimental: The optimal substrate for cathepsin K, acetyl-lysine-histidine-proline-lysine-amino carbamoyl coumarin, was identified from screening a combinatorial library of fluorogenic peptide substrates (Harris, J. L., B. J. Backes, et al., Proc Natl Acad Sci USA 2000, 97(14), 7754-9). Kinetic measurements are performed in a total reaction volume of 30 μl in 384-well microtiter plates. […] The reactions are initiated by adding the substrate, acetyl-lysine-histidine-proline-lysine-amino carbamoyl coumarin, to a final concentration of 40 μM. The rate of substrate hydrolysis is measured by monitoring the increase in fluorescence at an excitation wavelength of 380 nm and an emission wavelength of 450 nm that results from cleavage of the aniline bond in the substrate by the enzyme. The apparent inhibition constants for the compounds are determined from the enzyme progress curves ([…]. Elrod, et al., Anal Biochem 2000, 286(1), 45-50) and are then used to calculate the inhibition constants for competitive inhibitors. Selectivity for cathepsin S in the presence of cathepsin isozymes was determined by the ratio of the cathepsin isozyme inhibition constant of a compound of the present invention to the cathepsin S inhibition constant of the same compound.

Sequence of Cathepsin S (P25774 115-331, species assumed): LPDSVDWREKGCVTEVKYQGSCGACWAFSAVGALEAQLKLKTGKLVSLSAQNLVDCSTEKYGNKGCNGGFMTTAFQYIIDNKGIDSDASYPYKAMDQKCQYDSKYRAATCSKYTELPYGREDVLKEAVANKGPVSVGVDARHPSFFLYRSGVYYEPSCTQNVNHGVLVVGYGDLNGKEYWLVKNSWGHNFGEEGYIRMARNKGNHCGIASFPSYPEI

| SMILES | pKi (Cathepsin S) | Selectivity for Cat. S over Cat. K (Cathepsin K) |
| --- | --- | --- |
| COc1ccc(NCCNC(=O)[C@H](Cc2ccccc2)NC(=O)c2cc(C)c(OC)c(C)c2)cc1 [Compound 21, (S)-4-Methoxy-N-{1-[2-(4-methoxy-phenylamino)-ethylcarbamoyl]-2-phenyl-ethyl}-3,5-dimethyl-benzamide] | > 7.00 | + (+, >10) |
| COc1ccc2[nH]c(C(=O)N[C@@H](CC3CCCCC3)C(=O)NCCNc3ccc(OC(F)(F)F)cc3)cc2c1 [Compound 22, 5-Methoxy-1H-indole-2-carboxylic acid (S)-{2-cyclohexyl-1-[2-(4-trifluoromethoxy-phenylamino)-ethylcarbamoyl]-ethyl}-amide] | > 6.00 | + (+, >10) |
| O=C(N[C@@H](CC1CCCCC1)C(=O)NCCNc1ccc(OC(F)(F)F)cc1)c1ccoc1 [Compound 26] | > 7.00 | ++ (++, >100) |
| Cc1nc(-c2ccc(C(=O)N[C@@H](CC3CCCCC3)C(=O)NCCNc3ccc(OC(F)(F)F)cc3)cc2)no1 [Compound 27] | > 7.00 | +++ (+++, >1000) |
| Cc1nc(-c2ccc(C(=O)N[C@@H](CC3CCCCC3)C(=O)NCCNc3ccc(OC(F)(F)F)cc3)cc2)no1 [Compound 28] | > 6.00 | + (+, >10) |
| COc1ccc(NCCNC(=O)[C@H](Cc2ccccc2)NC(=O)c2cc(C)c(C)cc2C)cc1 [Compound 30, (S)-N-{1-[2-(4-Methoxy-phenylamino)-ethylcarbamoyl]-2-phenyl-ethyl}-2,4,5-trimethyl-benzamide] | > 7.00 | + (+, >10) |
| O=C(N[C@@H](CC1CCCCC1)C(=O)NCCNc1ccc(OC(F)(F)F)cc1)c1ccc(-c2cccc(F)c2)o1 [Compound 31, 5-(3-Fluoro-phenyl)-furan-2-carboxylic acid (S)-{2-cyclohexyl-1-[2-(4-trifluoromethoxy-phenylamino)-ethylcarbamoyl]-ethyl}-amide] | > 7.00 | + (+, >10) |
| O=C(N[C@@H](CC1CCCCC1)C(=O)NCCNc1ccc(OC(F)(F)F)cc1)C1CN(Cc2ccccc2)CCO1 (stereo partly drawn) [Compound 32, 4-Benzyl-morpholine-2-carboxylic acid (S)-{2-cyclohexyl-1-[2-(4-trifluoromethoxy-phenylamino)-ethylcarbamoyl]-ethyl}-amide] | > 7.00 | + (+, >10) |
| COc1ccc(NCCNC(=O)[C@H](Cc2ccc(Oc3ccc(N(C)C)cc3)cc2)NC(=O)c2cccc(C)c2)cc1 [Compound 33, (S)-N-{2-[4-(4-Dimethylamino-phenoxy)-phenyl]-1-[2-(4-methoxy-phenylamino)-ethylcarbamoyl]-ethyl}-3-methyl-benzamide] | > 5.00 | + (+, >10) |
| O=C(N[C@@H](CC1CCCCC1)C(=O)NCCNc1ccc(OC(F)(F)F)cc1)c1cccc(-c2ccccc2Cl)c1 [Compound 34, 2′-Chloro-biphenyl-3-carboxylic acid (S)-{2-cyclohexyl-1-[2-(4-trifluoromethoxy-phenylamino)-ethylcarbamoyl]-ethyl}-amide] | > 7.00 | +++ (+++, >1000) |
| O=C(N[C@@H](CC1CCCCC1)C(=O)NCCNc1ccc(OC(F)(F)F)cc1)c1ccc(-c2ccccc2C(F)(F)F)s1 [Compound 35, 5-(2-Trifluoromethyl-phenyl)-thiophene-2-carboxylic acid (S)-{2-cyclohexyl-1-[2-(4-trifluoromethoxy-phenylamino)-ethylcarbamoyl]-ethyl}-amide] | > 7.00 | + (+, >10) |
| O=C(N[C@@H](CC1CCCCC1)C(=O)NCCNc1ccc(OC(F)(F)F)cc1)c1ccc(-c2cccc(F)c2)s1 [Compound 36, 5-(3-Fluoro-phenyl)-thiophene-2-carboxylic acid (S)-{2-cyclohexyl-1-[2-(4-trifluoromethoxy-phenylamino)-ethylcarbamoyl]-ethyl}-amide] | > 7.00 | ++ (++, >100) |
| O=C(N[C@@H](CC1CCCCC1)C(=O)NCCNc1ccc(OC(F)(F)F)cc1)c1ccsc1 [Compound 37, Thiophene-3-carboxylic acid (S)-{2-cyclohexyl-1-[2-(4-trifluoromethoxy-phenylamino)-ethylcarbamoyl]-ethyl}-amide] | > 7.00 | ++ (++, >100) |
| O=C(N[C@@H](CC1CCCCC1)C(=O)NCCNc1ccc(OC(F)(F)F)cc1)C1CC(=O)N(Cc2cccs2)C1 (stereo partly drawn) [Compound 38, 5-Oxo-1-thiophen-2-ylmethyl-pyrrolidine-3-carboxylic acid (S)-{2-cyclohexyl-1-[2-(4-trifluoromethoxy-phenylamino)-ethylcarbamoyl]-ethyl}-amide] | > 7.00 | ++ (++, >100) |
| O=C(N[C@@H](CC1CCCCC1)C(=O)NCCNc1ccc(OC(F)(F)F)cc1)C1CC(=O)N(Cc2ccco2)C1 (stereo partly drawn) [Compound 39, 1-Furan-2-ylmethyl-5-oxo-pyrrolidine-3-carboxylic acid (S)-{2-cyclohexyl-1-[2-(4-trifluoromethoxy-phenylamino)-ethylcarbamoyl]-ethyl}-amide] | > 6.00 | ++ (++, >100) |

Continued, values first:

| pKi (Cathepsin S) | Selectivity for Cat. S over Cat. K (Cathepsin K) | SMILES |
| --- | --- | --- |
| > 6.00 | + (+, >10) | Cc1oc(S(=O)(=O)N2CCCC2)cc1C(=O)N[C@@H](CC1CCCCC1)C(=O)NCCNc1ccc(OC(F)(F)F)cc1 [Compound 40, 2-Methyl-5-(pyrrolidine-1-sulfonyl)-furan-3-carboxylic acid (S)-{2-cyclohexyl-1-[2-(4-trifluoromethoxy-phenylamino)-ethylcarbamoyl]-ethyl}-amide] |
| > 6.00 | ++ (++, >100) | COc1ccc(NCCNC(=O)[C@H](Cc2ccccc2)NC(=O)c2cnn(-c3ccccc3)c2C(F)(F)F)cc1 [Compound 41, (S)-1-Phenyl-5-trifluoromethyl-1H-pyrazole-4-carboxylic acid {1-[2-(4-methoxy-phenylamino)-ethylcarbamoyl]-2-phenyl-ethyl}-amide] |
| > 6.00 | + (+, >10) | Cc1ccc(-c2ccc(C(=O)N[C@@H](CC3CCCCC3)C(=O)NCCNc3ccc(OC(F)(F)F)cc3)s2)cc1 [Compound 42, 5-p-Tolyl-thiophene-2-carboxylic acid (S)-{2-cyclohexyl-1-[2-(4-trifluoromethoxy-phenylamino)-ethylcarbamoyl]-ethyl}-amide] |
| > 7.00 | + (+, >10) | O=C(N[C@@H](CC1CCCCC1)C(=O)NCCNc1ccc(OC(F)(F)F)cc1)c1ccc(Cn2cnc3ccccc32)cc1 [Compound 43, 4-Benzoimidazol-1-ylmethyl-N-{2-cyclohexyl-1-(S)-[2-(4-trifluoromethoxy-phenylamino)-ethylcarbamoyl]-ethyl}-benzamide] |
| > 6.00 | ++ (++, >100) | COc1ccc(NCCNC(=O)[C@H](Cc2ccccc2)NC(=O)c2cnn(-c3ccc(Cl)cc3)c2C(F)(F)F)cc1 [Compound 44, (S)-1-(4-Chloro-phenyl)-5-trifluoromethyl-1H-pyrazole-4-carboxylic acid {1-[2-(4-methoxy-phenylamino)-ethylcarbamoyl]-2-phenyl-ethyl}-amide] |
| > 7.00 | +++ (+++, >1000) | COc1ccc(NCCNC(=O)[C@H](Cc2ccc(Oc3ccc(C)cc3)cc2)NC(=O)c2cccc(C)c2)cc1 [Compound 45, (S)-N-[1-[2-(4-Methoxy-phenylamino)-ethylcarbamoyl]-2-(4-p-tolyloxy-phenyl)-ethyl]-3-methyl-benzamide] |
| > 6.00 | ++ (++, >100) | O=C(Cn1cnnn1)N[C@@H](CC1CCCCC1)C(=O)NCCNc1ccc(OC(F)(F)F)cc1 [Compound 46, 3-Cyclohexyl-2-(S)-(2-tetrazol-1-yl-acetylamino)-N-[2-(4-trifluoromethoxy-phenylamino)-ethyl]-propionamide] |
| > 7.00 | +++ (+++, >1000) | Cc1cccc(-c2ccc(C(=O)N[C@@H](CC3CCCCC3)C(=O)NCCNc3ccc(OC(F)(F)F)cc3)s2)c1 [Compound 47, 5-m-Tolyl-thiophene-2-carboxylic acid (S)-{2-cyclohexyl-1-[2-(4-trifluoromethoxy-phenylamino)-ethylcarbamoyl]-ethyl}-amide] |
